Assay results as given in patent US9944666B2, “Compounds that are S1P modulating agents and/or ATX modulating agents” (BIOGEN MA INC., priority 2012, dated 2018).

target: T1, Human ATX protein (Homo sapiens, UniProt Q13822); assay: ATX biochemical FRET assay with FS-3 substrate; conditions: FS-3 2 μM, ATX 1.0 μg/mL, room temperature 2 hours, fluorescence 485/538 nm
T1 construct: made in house
From the text: ATX (Autotaxin) is a 125 KDa glycoprotein with lysophospholipase D (LPLD) activity that generates the bioactive lipid lysophosphatidic acid (LPA) from lysophosphatidylcholine (LPC). The ATX biochemical assay utilizes a FRET (fluorescence resonance energy transfer) technology platform. The fluorescence signal of FRET substrate FS-3 is quenched due to intra-molecular FRET of a fluorophore to a non-fluorescing quencher (Ferguson, C. G., et al., Org Lett. 2006 May 11; 8(10): 2023-2026, which is incorporated by reference in its entirety). ATX catalyzes the hydrolysis of the substrate which separates the dabsyl quencher from the fluorescein reporter, which becomes fluorescent. The reaction is monitored by a SpectraMax M5 (Molecular Devices, Sunnyvale, Calif.) with at excitation wavelength 485 nm and emission wavelength […].
Fatty acid free-BSA (Sigma A8806): 10 mg/ml, in H2O, stored at 4° C.
2×ATX assay buffer: 100 mM Tris, 280 mM NaCl, 10 mM KCl, 2 mM CaCl2, 2 mM MgCl2, pH 7.4.
Human ATX protein: expressed and purified in house. Stored at −80° C.
Substrate FS-3 (Echelon, L-2000): 100 μg in 77.74 μL H2O (1 mM stock), stored at −20° C.
384-well flat bottom plates—Corning #3575.
Compound dilution—All compounds were provided at 10 mM in 100% DMSO. In the first well, 2 μL of 10 mM compound was added to 78 μL of DMSO (1:40 dilution). In subsequent wells 3-fold dilution (total 10 dilutions) were performed.
1×ATX assay buffer was made up with a final concentration of 1 mg/mL fatty acid free-BSA using 2×ATX assay buffer, 10 mg/ml fatty acid free-BSA and ddH2O.
ATX protein was diluted with 1×ATX assay buffer to a concentration of 1.32 μg/mL (1.32×). 38 μL was added per well to the assay plate. The final concentration of ATX in the reaction as 1.0 μg/mL.
2 μL per well of compounds was transferred to provide the desired concentration. The plate was centrifuged, then incubated at room temperature for 30 minutes on the shaker.
FS-3 was diluted with 1×ATX assay buffer to a concentration of FS-3 of 10 μM (5×). Then, 10 μL was added per well to the assay plate. The final concentration of FS-3 in the reaction was 2 μM. The plate was centrifuged. The plate was kept shaking at room temperature for 2 hours. Because FS-3 substrate is light sensitive, plates were kept covered and protected from light.
Fluorescence was measured using SpectraMax M5 (excitation at 485 nm/emission at 538 nm, top read).

CC[C@H]1CC[C@@H](Oc2ccc3cc(C(=O)N4C5CCCC4CC(C(=O)O)C5)ccc3c2C(F)(F)F)CC1 (stereo partly drawn) [Example 224, 9-(6-((cis-4-ethylcyclohexyl)oxy)-5-(trifluoromethyl)-2-naphthoyl)-9-azabicyclo[3.3.1]nonane-3-carboxylic acid] and CC[C@H]1CC[C@@H](Oc2ccc3cc(CN4C5CCCC4CC(C(=O)O)C5)ccc3c2C(F)(F)F)CC1 (relative stereo) [Example 171, 9-((6-((cis-4-ethylcyclohexyl)oxy)-5-(trifluoromethyl)naphthalen-2-yl)methyl)-9-azabicyclo[3.3.1]nonane-3-carboxylic acid] cannot be ordered by IC50: ≤ 100 nM for the first, ≤ 100 nM for the second.

NC1CC2CC(C(=O)O)CC(C1)N2Cc1ccc2c(C(F)(F)F)c(O[C@H]3CC[C@@H](C(F)(F)F)CC3)ccc2c1 (stereo partly drawn) [Example 284, 9-(1R,3R,5S)-7-amino-9-((5-(trifluoromethyl)-6-((cis-4-(trifluoromethyl)cyclohexyl)oxy)naphthalen-2-yl)methyl)-9-azabicyclo[3.3.1]nonane-3-carboxylic acid] and O=C(O)C1CC2CCCC(C1)N2Cc1ccc2c(C(F)(F)F)c(O[C@H]3CC[C@@H](C(F)(F)F)CC3)ccc2c1 (stereo partly drawn) [Example 84, 9-((5-(trifluoromethyl)-6-((cis-4-(trifluoromethyl)cyclohexyl)oxy)naphthalen-2-yl)methyl)-9-azabicyclo[3.3.1]nonane-3-carboxylic acid] cannot be ordered by IC50: ≤ 250 nM for the first, ≤ 100 nM for the second.

C[C@H]1CC[C@@H](Nc2ncc3cc(CN4C5CCCC4CC(C(=O)O)C5)ccc3c2Cl)CC1 (stereo partly drawn) [Example 271, 9-((4-chloro-3-((cis-4-methylcyclohexyl)amino)isoquinolin-7-yl)methyl)-9-azabicyclo[3.3.1]nonane-3-carboxylic acid] and C[C@H]1CC[C@@H](Oc2ccc3cc(CN4C5CCCC4CC(C(=O)O)C5)ccc3c2Cl)CC1 (relative stereo) [Example 183, 9-((5-Chloro-6-((cis-4-methylcyclohexyl)oxy)naphthalen-2-yl)methyl)-9-azabicyclo[3.3.1]nonane-3-carboxylic acid] cannot be ordered by IC50: ≤ 500 nM for the first, ≤ 250 nM for the second.

N#Cc1c(O[C@H]2CC[C@@H](C(F)(F)F)CC2)ccc2cc(CN3C4CCCC3CC(C(=O)O)C4)ccc12 (stereo partly drawn) [Example 229, 9-((5-cyano-6-((cis-4-(trifluoromethyl)cyclohexyl)oxy)naphthalen-2-yl)methyl)-9-azabicyclo[3.3.1]nonane-3-carboxylic acid] and O=C(O)C1CC2CCCC(C1)N2C(=O)Cc1ccc2c(C(F)(F)F)c(O[C@H]3CC[C@@H](C(F)(F)F)CC3)ccc2c1 (stereo partly drawn) [Example 106, 9-(2-(5-(trifluoromethyl)-6-((cis-4-(trifluoromethyl)cyclohexyl)oxy)naphthalene-2-yl)acetyl)-9-azabicyclo[3.3.1]nonane-3-carboxylic acid] cannot be ordered by IC50: ≤ 100 nM for the first, ≤ 500 nM for the second.

CC[C@H]1CC[C@@H](Oc2ccc3cc([C@@H](C)N4C5CCC4CC(C(=O)O)C5)ccc3c2C(F)(F)F)CC1 (single isomer, unassigned) [Example 289] and CC[C@H]1CC[C@@H](Oc2ccc3cc([C@@H](C)N4C5CCCC4CC(C(=O)O)C5)ccc3c2C(F)(F)F)CC1 (single isomer, unassigned) [Example 291] cannot be ordered by IC50: ≤ 100 nM for the first, ≤ 100 nM for the second.

CCC(c1ccc2c(C(F)(F)F)c(O[C@H]3CC[C@@H](C(C)(F)F)CC3)ccc2c1)N1C2CCC1CC(C(=O)O)C2 (stereo partly drawn) [Example 204, 8-(1-(6-((cis-4-(1,1-difluoroethyl)cyclohexyl)oxy)-5-(trifluoromethyl)naphthalen-2-yl)propyl)-8-azabicyclo[3.2.1]octane-3-carboxylic acid] and CC(c1ccc2c(C(F)(F)F)c(O[C@H]3CC[C@@H](C(C)(F)F)CC3)ccc2c1)N1C2CCC1CC(C(=O)O)C2 (stereo partly drawn) [Example 216, 8-(1-(6-((cis-4-(1,1-difluoroethyl)cyclohexyl)oxy)-5-(trifluoromethyl)naphthalen-2-yl)ethyl)-8-azabicyclo[3.2.1]octane-3-carboxylic acid] cannot be ordered by IC50: ≤ 100 nM for the first, ≤ 100 nM for the second.

CC(C)(C)[C@H]1CC[C@H](Nc2ncc3cc(C(=O)N4C5CCCC4CC(C(=O)O)C5)ccc3n2)CC1 (stereo partly drawn) [Example 191, 9-(2-((trans-4-(tert-butyl)cyclohexyl)amino)quinazoline-6-carbonyl)-9-azabicyclo[3.3.1]nonane-3-carboxylic acid] and C[C@H]1CC[C@@H](Oc2ccc3cc(C(=O)N4C5CCC4CC(C(=O)O)C5)ccc3c2C#N)CC1 (stereo partly drawn) [Example 219, 8-(5-cyano-6-((cis-4-methylcyclohexyl)oxy)-2-naphthoyl)-8-azabicyclo[3.2.1]octane-3-carboxylic acid] cannot be ordered by IC50: ≤ 100 nM for the first, ≤ 100 nM for the second.

CC[C@@H](c1ccc2c(C(F)(F)F)c(O[C@H]3CC[C@@H](C(F)(F)F)CC3)ccc2c1)N1C2CCCC1CC(C(=O)O)C2 (single isomer, unassigned) [Example 296] and CC(c1ccc2c(C(F)(F)F)c(O[C@H]3CC[C@@H](C(F)(F)F)CC3)ccc2c1)N1C2CCCC1CC(C(=O)O)C2 (some centres unmarked) [Example 88] cannot be ordered by IC50: ≤ 100 nM for the first, ≤ 100 nM for the second.

CC[C@@H](c1ccc2c(C(F)(F)F)c(O[C@H]3CC[C@@H](C)CC3)ccc2c1)N1C2CCC1CC(C(=O)O)C2 (single isomer, unassigned) [Example 233, 8-((s)-1-(6-((cis-4-methylcyclohexyl)oxy)-5-(trifluoromethyl)naphthalen-2-yl)propyl)-8-azabicyclo[3.2.1]octane-3-carboxylic acid] and CC[C@@H](c1ccc2c(C(F)(F)F)c(O[C@H]3CC[C@@H](CC)CC3)ccc2c1)N1C2CCC1CC(C(=O)O)C2 (single isomer, unassigned) [Example 294] cannot be ordered by IC50: ≤ 100 nM for the first, ≤ 100 nM for the second.

CC[C@@H](c1ccc2c(Cl)c(O[C@H]3CC[C@@H](CC)CC3)ccc2c1)N1C2CCCC1CC(C(=O)O)C2 (single isomer, unassigned) [Example 249] and CC[C@H]1CC[C@@H](Oc2ccc3cc(C(C)N4C5CCCC4CC(C(=O)O)C5)ccc3c2Cl)CC1 (relative stereo) [Example 182, 9-(1-(6-((cis-4-ethylcyclohexyl)oxy)-5-chloronaphthalen-2-yl)ethyl)-9-azabicyclo[3.3.1]nonane-3-carboxylic acid] cannot be ordered by IC50: ≤ 100 nM for the first, ≤ 100 nM for the second.

CC[C@H]1CC[C@@H](Oc2ccc3cc(C(=O)N4C5CCC4CC(C(=O)O)C5)ccc3c2C#N)CC1 (stereo partly drawn) [Example 223, 8-(5-cyano-6-((cis-4-ethylcyclohexyl)oxy)-2-naphthoyl)-8-azabicyclo[3.2.1]octane-3-carboxylic acid] and CC[C@H]1CC[C@@H](Oc2ccc3cc(C(C)N4C5CCCC4CC(C(=O)O)C5)ccc3c2C(F)(F)F)CC1 (relative stereo) [Example 175, 9-(1-(6-((cis-4-ethylcyclohexyl)oxy)-5-(trifluoromethyl)naphthalen-2-yl)ethyl)-9-azabicyclo[3.3.1]nonane-3-carboxylic acid] cannot be ordered by IC50: ≤ 100 nM for the first, ≤ 100 nM for the second.

CC(c1ccc2c(Cl)c(O[C@H]3CC[C@@H](C)CC3)ccc2c1)N1C2CCCC1CC(C(=O)O)C2 (stereo partly drawn) [Example 214, 9-(1-(5-chloro-6-((cis-4-methylcyclohexyl)oxy)naphthalen-2-yl)ethyl)-9-azabicyclo[3.3.1]nonane-3-carboxylic acid] and CC(c1ccc2c(C(F)F)c(O[C@H]3CC[C@@H](C)CC3)ccc2c1)N1C2CCCC1CC(C(=O)O)C2 (single isomer, unassigned; enantiomer 1) [Example 138, 9-(1-(5-(difluoromethyl)-6-((cis-4-methylcyclohexyl)oxy)naphthalen-2-yl)ethyl)-9-azabicyclo[3.3.1]nonane-3-carboxylic acid, enantiomer 1] cannot be ordered by IC50: ≤ 100 nM for the first, ≤ 100 nM for the second.

C[C@H]1CC[C@@H](Oc2ccc3cc(CN4C5COCC4CC(C(=O)O)C5)ccc3c2C(F)(F)F)CC1 (relative stereo) [Example 126, 9-((6-((cis-4-Methylcyclohexyl)oxy)-5-(trifluoromethyl)naphthalen-2-yl)methyl)-9-aza-7-oxa-bicyclo[3.3.1]nonane-3-carboxylic acid] and CC(c1ccc2c(C(F)F)c(O[C@H]3CC[C@@H](C)CC3)ccc2c1)N1C2CCC1CC(C(=O)O)C2 (relative stereo) [Example 133, 8-(1-(5-(difluoromethyl)-6-((cis-4-methylcyclohexyl)oxy)naphthalen-2-yl)ethyl)-8-azabicyclo[3.2.1]octane-3-carboxylic acid] cannot be ordered by IC50: ≤ 250 nM for the first, ≤ 100 nM for the second.
